Molecular target: Aurora B/INCENP (Homo sapiens, UniProt Q96GD4)
Assay: Determination of inhibition of AIK: Aurora B/INCENP direct fluorescence polarization (IMAP) assay
Format: biochemical
Settings: 10 uM ATP, 0.8 nM Aurora B/INCENP; values given as bins; read-out: IC50 of Exemplified Compounds Against AIK B

Chain of Aurora B/INCENP (Q96GD4 whole entry): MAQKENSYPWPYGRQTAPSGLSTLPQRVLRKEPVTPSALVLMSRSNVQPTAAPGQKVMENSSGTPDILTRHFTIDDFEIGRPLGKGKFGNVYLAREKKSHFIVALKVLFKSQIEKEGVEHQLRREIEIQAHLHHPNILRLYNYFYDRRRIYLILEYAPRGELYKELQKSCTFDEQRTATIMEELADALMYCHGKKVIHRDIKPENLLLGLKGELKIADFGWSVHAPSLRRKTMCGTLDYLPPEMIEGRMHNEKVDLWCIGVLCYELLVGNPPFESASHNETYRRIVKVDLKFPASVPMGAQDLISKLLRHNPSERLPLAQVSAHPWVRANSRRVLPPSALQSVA
Chain of Aurora B/INCENP (Q9NQS7 whole entry partner): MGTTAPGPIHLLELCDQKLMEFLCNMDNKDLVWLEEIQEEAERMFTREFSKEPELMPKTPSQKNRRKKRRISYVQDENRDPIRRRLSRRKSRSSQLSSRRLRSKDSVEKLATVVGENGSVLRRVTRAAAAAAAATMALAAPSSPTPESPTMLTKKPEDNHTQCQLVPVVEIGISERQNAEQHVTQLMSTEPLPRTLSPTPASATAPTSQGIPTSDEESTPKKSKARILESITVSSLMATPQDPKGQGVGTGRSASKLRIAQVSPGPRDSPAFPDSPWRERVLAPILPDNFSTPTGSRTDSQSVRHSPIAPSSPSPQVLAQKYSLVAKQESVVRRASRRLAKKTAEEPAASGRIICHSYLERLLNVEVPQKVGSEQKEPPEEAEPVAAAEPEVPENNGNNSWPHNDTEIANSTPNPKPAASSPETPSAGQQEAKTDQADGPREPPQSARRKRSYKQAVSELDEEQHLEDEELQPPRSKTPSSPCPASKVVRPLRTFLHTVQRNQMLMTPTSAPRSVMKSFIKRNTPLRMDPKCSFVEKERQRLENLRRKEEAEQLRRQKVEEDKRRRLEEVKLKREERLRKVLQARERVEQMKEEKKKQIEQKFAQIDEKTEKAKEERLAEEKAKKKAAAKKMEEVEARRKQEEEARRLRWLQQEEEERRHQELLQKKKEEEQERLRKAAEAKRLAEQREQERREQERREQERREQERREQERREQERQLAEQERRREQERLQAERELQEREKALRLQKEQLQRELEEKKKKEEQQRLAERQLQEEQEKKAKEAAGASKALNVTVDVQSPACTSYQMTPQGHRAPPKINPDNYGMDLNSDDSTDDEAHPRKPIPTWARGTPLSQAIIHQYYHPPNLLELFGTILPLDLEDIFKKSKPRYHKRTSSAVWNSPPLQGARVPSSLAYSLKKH

Compound | IC50
O=S(=O)(c1cccc(-c2ccc(OCCN3CCC(O)CC3)c3[nH]c4ncc(Cl)cc4c23)c1)C1CC1 [Compound 325, 1-(2-(3-chloro-5-(3-(cyclopropylsulfonyl)phenyl)-9H-pyrido[2,3-b]indol-8-yloxy)ethyl)piperidin-4-ol] | < 4 nM
CCS(=O)(=O)c1cccc(-c2ccc(OCCN3CCC(O)CC3)c3[nH]c4ncc(Cl)cc4c23)c1 [Compound 327, 1-(2-(3-chloro-5-(3-(ethylsulfonyl)phenyl)-9H-pyrido[2,3-b]indol-8-yloxy)ethyl)piperidin-4-ol] | 8.6 to 13 nM
CCS(=O)(=O)c1cccc(-c2ccc(OCCn3ccnc3)c3[nH]c4ncc(C)cc4c23)c1 [Compound 333, 8-(2-(1H-imidazol-1-yl)ethoxy)-5-(3-(ethylsulfonyl)phenyl)-3-methyl-9H-pyrido[2,3-b]indole] | > 13 nM
CCS(=O)(=O)c1cccc(-c2ccc(OCCCN(CCOP(=O)(O)O)CC(F)(F)F)c3[nH]c4ncc(C)cc4c23)c1 [Compound 343, 2-((3-(5-(3-(ethylsulfonyl)phenyl)-3-methyl-9H-pyrido[2,3-b]indol-8-yloxy)propyl)(2,2,2-trifluoroethyl)amino)ethyl dihydrogen phosphate] | < 4 nM
Cc1cnc2[nH]c3c(OCC4CCN(CCOP(=O)(O)O)CC4)ccc(-c4cccc(S(=O)(=O)C5CC5)c4)c3c2c1 [Compound 346, 2-(4-((5-(3-(cyclopropylsulfonyl)phenyl)-3-methyl-9H-pyrido[2,3-b]indol-8-yloxy)methyl)piperidin-1-yl)ethyl dihydrogen phosphate] | < 4 nM
Cc1cnc2[nH]c3c(OCCCN4CCC(COP(=O)(O)O)CC4)ccc(-c4cccc(S(=O)(=O)C5CC5)c4)c3c2c1 [Compound 347, (1-(3-(5-(3-(cyclopropylsulfonyl)phenyl)-3-methyl-9H-pyrido[2,3-b]indol-8-yloxy)propyl)piperidin-4-yl)methyl dihydrogen phosphate] | < 4 nM
CCS(=O)(=O)c1cccc(-c2ccc(OCCCOP(=O)(O)O)c3[nH]c4ncc(C)cc4c23)c1 [Compound 350, 3-(5-(3-(ethylsulfonyl)phenyl)-3-methyl-9H-pyrido[2,3-b]indol-8-yloxy)propyl dihydrogen phosphate] | < 4 nM
Cc1cnc2[nH]c3c(OC[C@@H]4CNCCO4)ccc(-c4cccc(S(=O)(=O)C5CC5)c4)c3c2c1 [Compound 358, (S)-2-((5-(3-(cyclopropylsulfonyl)phenyl)-3-methyl-9H-pyrido[2,3-b]indol-8-yloxy)methyl)morpholine] | < 4 nM
Cc1cnc2[nH]c3c(OC[C@H]4CNCCO4)ccc(-c4cccc(S(=O)(=O)C5CC5)c4)c3c2c1 [Compound 359, (R)-2-((5-(3-(cyclopropylsulfonyl)phenyl)-3-methyl-9H-pyrido[2,3-b]indol-8-yloxy)methyl)morpholine] | < 4 nM
Cc1cnc2[nH]c3c(OC[C@@H]4CN(C)CCO4)ccc(-c4cccc(S(=O)(=O)C5CC5)c4)c3c2c1 [Compound 370, (S)-2-((5-(3-(cyclopropylsulfonyl)phenyl)-3-methyl-9H-pyrido[2,3-b]indol-8-yloxy)methyl)-4-methylmorpholine] | 4 to 5.5 nM
Cc1cnc2[nH]c3c(OC[C@H]4CN(C)CCO4)ccc(-c4cccc(S(=O)(=O)C5CC5)c4)c3c2c1 [Compound 371, (R)-2-((5-(3-(cyclopropylsulfonyl)phenyl)-3-methyl-9H-pyrido[2,3-b]indol-8-yloxy)methyl)-4-methylmorpholine] | < 4 nM
Cc1cnc2[nH]c3c(OC[C@@H]4CN(CCOP(=O)(O)O)CCO4)ccc(-c4cccc(S(=O)(=O)C5CC5)c4)c3c2c1 [Compound 373, (S)-2-(2-((5-(3-(cyclopropylsulfonyl)phenyl)-3-methyl-9H-pyrido[2,3-b]indol-8-yloxy)methyl)morpholino)ethyl dihydrogen phosphate] | 4 to 5.5 nM
Cc1cnc2[nH]c3c(OC[C@H]4CN(CCOP(=O)(O)O)CCO4)ccc(-c4cccc(S(=O)(=O)C5CC5)c4)c3c2c1 [Compound 375, (R)-2-(2-((5-(3-(cyclopropylsulfonyl)phenyl)-3-methyl-9H-pyrido[2,3-b]indol-8-yloxy)methyl)morpholino)ethyl dihydrogen phosphate] | < 4 nM
Cc1cnc2[nH]c3c(OC[C@H](O)CN4CCOCC4)ccc(-c4cccc(S(=O)(=O)C5CC5)c4)c3c2c1 [Compound 380, (R)-1-(5-(3-(cyclopropylsulfonyl)phenyl)-3-methyl-9H-pyrido[2,3-b]indol-8-yloxy)-3-morpholinopropan-2-ol] | 4 to 5.5 nM
Cc1cnc2[nH]c3c(OC[C@@H](CN4CCOCC4)OP(=O)(O)O)ccc(-c4cccc(S(=O)(=O)C5CC5)c4)c3c2c1 [Compound 382, (R)-1-(5-(3-(cyclopropylsulfonyl)phenyl)-3-methyl-9H-pyrido[2,3-b]indol-8-yloxy)-3-morpholinopropan-2-yl dihydrogen phosphate] | < 4 nM
CCS(=O)(=O)c1cccc(-c2ccc(O[C@H](C)CCO)c3[nH]c4ncc(C)cc4c23)c1 [Compound 388, (R)-3-(5-(3-(ethylsulfonyl)phenyl)-3-methyl-9H-pyrido[2,3-b]indol-8-yloxy)butan-1-ol] | 4 to 5.5 nM
CCS(=O)(=O)c1cccc(-c2ccc(O[C@@H](C)CCO)c3[nH]c4ncc(C)cc4c23)c1 [Compound 389, (S)-3-(5-(3-(ethylsulfonyl)phenyl)-3-methyl-9H-pyrido[2,3-b]indol-8-yloxy)butan-1-ol] | 4 to 5.5 nM
CCS(=O)(=O)c1cccc(-c2ccc(O[C@@H](C)COP(=O)(O)O)c3[nH]c4ncc(C)cc4c23)c1 [Compound 391, (S)-2-(5-(3-(ethylsulfonyl)phenyl)-3-methyl-9H-pyrido[2,3-b]indol-8-yloxy)propyl dihydrogen phosphate] | 4 to 5.5 nM
CCS(=O)(=O)c1cccc(-c2ccc(OCCCn3cncn3)c3[nH]c4ncc(C)cc4c23)c1 [Compound 409, 8-(3-(1H-1,2,4-triazol-1-yl)propoxy)-5-(3-(ethylsulfonyl)phenyl)-3-methyl-9H-pyrido[2,3-b]indole] | > 13 nM
CCS(=O)(=O)c1cccc(-c2ccc(OCc3ccncc3)c3[nH]c4ncc(C)cc4c23)c1 [Compound 411, 5-(3-(ethylsulfonyl)phenyl)-3-methyl-8-(pyridin-4-ylmethoxy)-9H-pyrido[2,3-b]indole] | 4 to 5.5 nM

Other lines, results leading:

IC50 | Compound
< 4 nM | Cc1cnc2[nH]c3c(OCCN4CCC(O)CC4)ccc(-c4cccc(S(=O)(=O)C5CC5)c4)c3c2c1 [Compound 322, 1-(2-(5-(3-(cyclopropylsulfonyl)phenyl)-3-methyl-9H-pyrido[2,3-b]indol-8-yloxy)ethyl)piperidin-4-ol]
5.6 to 8.5 nM | CCN(CCO)CCOc1ccc(-c2cccc(S(=O)(=O)C3CC3)c2)c2c1[nH]c1ncc(Cl)cc12 [Compound 323, 2-((2-(3-chloro-5-(3-(cyclopropylsulfonyl)phenyl)-9H-pyrido[2,3-b]indol-8-yloxy)ethyl)(ethyl)amino)ethanol]
> 13 nM | Cc1cnc2[nH]c3c(OCCCN(CCO)CC(F)(F)F)ccc(-c4cccc(S(=O)(=O)C5CC5)c4)c3c2c1 [Compound 339, 2-((3-(5-(3-(cyclopropylsulfonyl)phenyl)-3-methyl-9H-pyrido[2,3-b]indol-8-yloxy)propyl)(2,2,2-trifluoroethyl)amino)ethanol]
> 13 nM | CCS(=O)(=O)c1cccc(-c2ccc(OCCCN(CCO)CC(F)(F)F)c3[nH]c4ncc(C)cc4c23)c1 [Compound 340, 2-((3-(5-(3-(ethylsulfonyl)phenyl)-3-methyl-9H-pyrido[2,3-b]indol-8-yloxy)propyl)(2,2,2-trifluoroethyl)amino)ethanol]
> 13 nM | Cc1cnc2[nH]c3c(OCCCN(CCO)CC(F)F)ccc(-c4cccc(S(=O)(=O)C5CC5)c4)c3c2c1 [Compound 341, 2-((3-(5-(3-(cyclopropylsulfonyl)phenyl)-3-methyl-9H-pyrido[2,3-b]indol-8-yloxy)propyl)(2,2-difluoroethyl)amino)ethanol]
< 4 nM | Cc1cnc2[nH]c3c(OCC4CCN(CCO)CC4)ccc(-c4cccc(S(=O)(=O)C5CC5)c4)c3c2c1 [Compound 345, 2-(4-((5-(3-(cyclopropylsulfonyl)phenyl)-3-methyl-9H-pyrido[2,3-b]indol-8-yloxy)methyl)piperidin-1-yl)ethanol]
4 to 5.5 nM | Cc1cnc2[nH]c3c(OC[C@@H]4CN(CCO)CCO4)ccc(-c4cccc(S(=O)(=O)C5CC5)c4)c3c2c1 [Compound 363, (S)-2-(2-((5-(3-(cyclopropylsulfonyl)phenyl)-3-methyl-9H-pyrido[2,3-b]indol-8-yloxy)methyl)morpholino)ethanol]
< 4 nM | Cc1cnc2[nH]c3c(OC[C@H](CO)CN(C)C)ccc(-c4cccc(S(=O)(=O)C5CC5)c4)c3c2c1 [Compound 401, (S)-3-(5-(3-(cyclopropylsulfonyl)phenyl)-3-methyl-9H-pyrido[2,3-b]indol-8-yloxy)-2-((dimethylamino)methyl)propan-1-ol]
< 4 nM | Cc1cnc2[nH]c3c(OC[C@@H](CO)CN(C)C)ccc(-c4cccc(S(=O)(=O)C5CC5)c4)c3c2c1 [Compound 402, (R)-3-(5-(3-(cyclopropylsulfonyl)phenyl)-3-methyl-9H-pyrido[2,3-b]indol-8-yloxy)-2-((dimethylamino)methyl)propan-1-ol]
< 4 nM | Cc1cnc2[nH]c3c(O)ccc(-c4cccc(S(=O)(=O)C5CC5)c4)c3c2c1 [Compound 404, 5-(3-(cyclopropylsulfonyl)phenyl)-3-methyl-9H-pyrido[2,3-b]indol-8-ol]
< 4 nM | CCNCCCOc1ccc(-c2cccc(S(=O)(=O)C3CC3)c2)c2c1[nH]c1ncc(C)cc12 [Compound 407, 3-(5-(3-(cyclopropylsulfonyl)phenyl)-3-methyl-9H-pyrido[2,3-b]indol-8-yloxy)-N-ethylpropan-1-amine]
< 4 nM | Cc1cnc2[nH]c3c(OCCCNCCO)ccc(-c4cccc(S(=O)(=O)C5CC5)c4)c3c2c1 [Compound 408, 2-(3-(5-(3-(cyclopropylsulfonyl)phenyl)-3-methyl-9H-pyrido[2,3-b]indol-8-yloxy)propylamino)ethanol]
